The subject of the assay is MCF7. The experiment in a line: Antitumor activity against human MCF7 cells by MTT assay. Type of assay: functional, cell-based. (In general: Tetrazolium assays rely on reduction of a dye to a coloured formazan, in cell work by metabolically active cells.)

In brackets after ≈: the same amount, converted by molar mass.

As for `CC(C)C[C@@H]1OC(=O)CNC(=O)[C@H](C(C)C)NC(=O)[C@H](Cc2ccc(O)cc2)NC(=O)CNC(=O)[C@@H](CC(C)C)NC1=O`, the IC50 (in general, the concentration that inhibits the measured activity by half) stood at 100 µg/mL (≈ 166 µM).
